Laboratory results as given in US20140072573A1, “METHOD OF TREATING RHEUMATOID ARTHRITIS” (Institut National de la Sante et de la Recherche Medicale …, priority 2012, published 2014).
Entries after “also recorded” stand apart in the source; their conditions may differ.

Columns and labels:
Format in all cases: cell-based, human
VE-cadherin [1] = test: VE-cadherin cytoplasmic fragment (VE-cyto) and 125 kDa full length protein in HUVEC extracts, western blot; settings: for effect on TNFα-induced VE-cyto generation: L685 present
Procedure: (§1) Cell culture, extraction and immunoprecipitation: Endothelial cells were obtained from human umbilical vein (HUVECs) and grown to reach confluence in M199 medium supplemented with 10% fetal bovine serum (FCS), 2% Low Serum Growth Supplement LSGS (Cascade Biologics, USA) as previously described (Garnier-Raveaud et al., 2001). The 80% confluent HUVECs (passages 2 or 4) were used for most experiments. Confluent cells in 60 mm dishes were serum-starved in 1% fetal calf serum in M 199 for 24 h prior to testing. Before TNFα stimulation the cells were serum-starved for 2 hours, and then pre-treated for 15 min with sodium pervanadate (10 μM) and/or inhibitors as mentioned in text and figure legends. HUVECs were then stimulated with different concentrations of TNFα for various lengths of time as indicated. Otherwise, in most parts of this study, precisely in inhibition experiments TNFα was used at high concentration (i.e 100 ng/mL). As the inhibitors were diluted in dimethyl-sulfoxide (DMSO), control cells were systematically treated with DMSO 0.1% in any inhibition experiment.
(§2) Cells stimulation was stopped by medium collection and addition of 500 μl of ice-cold buffer A. The cells were harvested, homogenized and sonicated for 20 seconds. Cell lysates were collected after centrifugation for 15 min at 40° C. at 14,000 g. The protein concentration was measured using the micro-bicinchoninic acid protein assay and cell lysates were stored at −80° C. before use.
(§3) Western blotting: Proteins were resolved by SDS-PAGE and transferred to nitrocellulose.

HUVECs = test: Cell viability of treated HUVECs
VE-cadherin [2] = test: VE-cadherin extracellular fragment (VE-90) release in HUVEC conditioned media, western blot; settings: for effect on TNFα-induced VE-90 release: 15 min pre-treatment, TNFα 100 ng/ml 45 min
Procedure: as §1
For conditioned medium analysis, the medium was collected and centrifuged for 15 minutes at 14,000 g at 4° C. The resulting supernatant was collected and proteins were concentrated by trichloro acetic acid precipitation (10%) overnight. After centrifugation at 14,000 g for 30 min, the pellet was re-suspended in Tris 50 mM (pH 11) and analyzed by SDS-PAGE and Western blotting.
as §3

VE-cadherin [3] = test: VE-cadherin tyrosine phosphorylation in HUVEC lysates, immunoprecipitation and phosphotyrosine western blot; settings: 50 μM, TNFα 100 ng/ml
Procedure: as §1
as §2, with “Cell lysates were collected after centrifugation for 15 min at 40° C. at 14,000 g.” left out, “use. […]” for “use.”

Molecule: CNC(=O)[C@H](Cc1c[nH]c2ccccc12)NC(=O)[C@@H](CC(=O)NO)CC(C)C [GM6001]
- effect on TNFα-induced VE-cyto generation (VE-cadherin [1]; 10 μM pre-treatment): almost completely abrogated
- cell viability (HUVECs; 10 μM): without affecting cell viability
- effect on TNFα-induced VE-90 release (VE-cadherin [2]; 10 μM): drastically decreased

Molecule: CC(C)(C)n1nc(-c2ccc(Cl)cc2)c2c(N)ncnc21 [PP2]
- effect on TNFα-induced VE-cyto generation (VE-cadherin [1]; 10 μM pre-treatment): strongly impaired
- cell viability (HUVECs; 10 μM): without affecting cell viability
- effect on TNFα-induced VE-90 release (VE-cadherin [2]; 10 μM): strongly decreased

Molecule: O=c1c(-c2ccc(O)cc2)coc2cc(O)cc(O)c12 [genistein]
- effect on TNFα-induced VE-cyto generation (VE-cadherin [1]; 50 μM pre-treatment): strongly impaired
- effect on VE-cyto generation with or without pervanadate pre-treatment (VE-cadherin [1]; both conditions (pervanadate pre-treated or not), TNFα): still decreased
- effect on TNFα-induced VE-cadherin tyrosine phosphorylation (VE-cadherin [3]): inhibited
- cell viability (HUVECs; 50 μM): without affecting cell viability
- effect on TNFα-induced VE-90 release (VE-cadherin [2]; 50 μM): strongly decreased

Molecule: TNFα
- appearance of VE-cyto upon TNFα challenge (VE-cadherin [1]; HUVEC extracts, γ-secretase inhibitor L685 present, TNFα 100 ng/ml): clearly detected
- VE-90 release versus TNFα concentration (VE-cadherin [2]; HUVECs, TNFα 0 up to 10 ng/ml, 45 min): increased in a dose-dependent manner; also recorded: dose-dependent release
- time of TNFα stimulation after which VE-90 was detected (VE-cadherin [2]; HUVECs, TNFα 100 ng/ml): 10 min
- VE-90 release in conditioned media over time (VE-cadherin [2]; HUVECs, TNFα 100 ng/ml, 5 to 60 min): time-dependent release; also recorded: increased in a time-dependent manner up to 60 min
- low TNFα concentration at which VE-90 release was early detected (VE-cadherin [2]; HUVECs, dose-response 0 up to 10 ng/ml, 45 min): 0.5 ng/mL

Molecule: sodium pervanadate
- effect on VE-cyto generation upon cytokine treatment (VE-cadherin [1]; pervanadate pre-treated versus non pre-treated HUVECs): tremendous increase
